{
  "source": "patent US20070203104A1",
  "about": "“Pharmaceutical Formulations” (priority 2006, published 2007)",
  "key": {"[1]": {"details": "symptoms associated with chronic nasal congestion, cited from earlier work"}, "[2]": {"details": "cited from earlier work"}, "Solubility": {"test": "Solubility", "assay_type": "physicochemical"}, "[3]": {"details": "cited from earlier work", "remark": "listed apart in the source"}, "rhinoviruses": {"tested_on": "rhinoviruses", "details": "cited from earlier work"}, "[4]": {"tested_on": "secretions of natural tear components", "details": "preclinical testing; cited from earlier work"}},
  "data": [
    {"smiles": "Oc1cccc(Nc2ncc(F)c(Nc3cccc(O)c3)n2)c1", "note": "[Example R112]", "values": [
      {"measurement": "improvement from baseline measurements", "setting": "[1]; baseline prior to drug initiation", "value": "up to 38%"},
      {"measurement": "absolute difference over placebo", "setting": "[1]", "value": 9, "unit": "%"},
      {"measurement": "relative improvement over placebo", "setting": "[1]", "value": "greater than 20%"}
    ]},
    {"smiles": "C[C@@H]1C[C@H]2[C@@H]3CCC4=CC(=O)C=C[C@]4(C)[C@@]3(Cl)[C@@H](O)C[C@]2(C)[C@@]1(OC(=O)c1ccco1)C(=O)CCl", "note": "[Mometasone Furoate]", "values": [
      {"measurement": "bioavailability", "setting": "[2]", "value": "not readily bioavailable"}
    ]},
    {"smiles": "Cc1cc(CCCOc2c(C)cc(-c3noc(C(F)(F)F)n3)cc2C)on1", "note": "[Pleconaril, 1,2,4-oxadiazole3-[3,5-Dimethyl-4-[3-(3-methyl-5-isoxazolyl)propoxy]phenyl]-5-(trifluoremethyl)]", "values": [
      {"measurement": "solubility in condensed phases of hydrofluorocarbons", "setting": "Solubility; certain condensed phases of hydrofluorocarbons, e.g. HFA 227", "value": "can be dissolved"},
      {"measurement": "solubility in certain glyceride oils", "setting": "Solubility; certain glyceride oils, e.g. Miglyol 812", "value": "can be dissolved"},
      {"measurement": "solubility in aqueous solvents", "setting": "[3]", "value": "insoluble"},
      {"measurement": "activity against rhinoviruses", "setting": "rhinoviruses", "value": "active"}
    ]},
    {"smiles": "O=c1ccn([C@@H]2O[C@H](COP(=O)(O)OP(=O)(O)OP(=O)(O)OP(=O)(O)OC[C@H]3O[C@@H](n4ccc(=O)[nH]c4=O)[C@H](O)[C@@H]3O)[C@@H](O)[C@H]2O)c(=O)[nH]1", "note": "[diquafosol]", "values": [
      {"measurement": "secretions of natural tear components", "setting": "[4]", "value": "increased"}
    ]}
  ]
}
